Data: US10287269B2, “Pyrazolyl pyrimidinone compounds as PDE2 inhibitors” (Merck Sharp & Dohme Corp., priority 2015, dated 2019)

Molecular target: T1, Rhesus PDE2A3 (Macaca mulatta, UniProt B3VTJ2)
T1 construct: made in house; host or cells: AD293 cells, transient transfection, pcDNA3.3-TOPO; lysate supernatant used as enzyme
T1 sequence (B3VTJ2 1-941): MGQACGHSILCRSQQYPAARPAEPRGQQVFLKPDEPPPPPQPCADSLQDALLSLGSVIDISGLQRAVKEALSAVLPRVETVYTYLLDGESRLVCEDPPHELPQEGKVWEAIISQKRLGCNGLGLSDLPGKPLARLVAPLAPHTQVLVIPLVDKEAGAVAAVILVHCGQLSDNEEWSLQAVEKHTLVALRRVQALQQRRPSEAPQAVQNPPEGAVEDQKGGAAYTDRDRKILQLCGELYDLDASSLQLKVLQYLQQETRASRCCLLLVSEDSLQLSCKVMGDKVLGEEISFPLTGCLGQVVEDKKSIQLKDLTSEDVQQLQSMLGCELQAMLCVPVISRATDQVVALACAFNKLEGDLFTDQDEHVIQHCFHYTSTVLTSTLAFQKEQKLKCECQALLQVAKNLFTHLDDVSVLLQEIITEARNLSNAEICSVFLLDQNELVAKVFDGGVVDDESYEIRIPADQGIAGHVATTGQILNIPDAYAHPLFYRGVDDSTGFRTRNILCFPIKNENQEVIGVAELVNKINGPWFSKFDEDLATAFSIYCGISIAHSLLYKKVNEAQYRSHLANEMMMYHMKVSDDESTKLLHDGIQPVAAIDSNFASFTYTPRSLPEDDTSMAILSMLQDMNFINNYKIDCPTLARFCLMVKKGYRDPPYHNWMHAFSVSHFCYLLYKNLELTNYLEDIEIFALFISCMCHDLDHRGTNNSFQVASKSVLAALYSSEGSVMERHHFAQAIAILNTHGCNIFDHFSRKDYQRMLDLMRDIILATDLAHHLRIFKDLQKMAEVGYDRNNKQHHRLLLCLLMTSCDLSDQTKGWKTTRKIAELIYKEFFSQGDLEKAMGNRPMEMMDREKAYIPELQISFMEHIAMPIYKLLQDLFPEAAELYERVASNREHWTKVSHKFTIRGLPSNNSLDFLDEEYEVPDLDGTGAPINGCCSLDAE
Assay: PDE2 fluorescence polarization (IMAP FP) inhibition assay, rhesus enzyme
Format: biochemical, rhesus macaque
Settings: Lab A; read-out: Rhesus PDE2 Ki (nM) Lab A
Description: The activity of the compounds in accordance with the present invention as PDE2 inhibitors may be readily determined using a fluorescence polarization (FP) methodology (Huang, W., et al., J. Biomol Screen, 2002, 7: 215).
In a typical experiment the PDE2 inhibitory activity of the compounds of the present invention was determined in accordance with the following experimental method. Rhesus PDE2A3 was amplified from rhesus macaque brain cDNA (Biochain Institute, Hayward, Calif.) using primers based on human PDE2A sequence (accession NM_002599.3) where the forward primer containing a Kozak consensus was 5′-[…]-3′ and the reverse primer was 5′-[…]-3′. Amplification with Easy-A High-Fidelity PCR cloning enzyme (Stratagene, La Jolla, Calif.) was 95° C. for 2 minutes followed by thirty three cycles of 95° C. for 40 seconds, 52° C. for 30 seconds, and 72° C. for 2 minutes 48 seconds. Final extension was 72° C. for 7 minutes. The PCR product was TA cloned into pcDNA3.3-TOPO (Invitrogen, Carlsbad, Calif.) according to standard protocol. A consensus sequence was developed from multiple clones and then deposited into GenBank (EU812167). AD293 cells (Stratagene, La Jolla, Calif.) with 70-80% confluency were transiently transfected with rhesus PDE2A3/pcDNA3.3-TOPO using Lipofectamine 2000 according to manufacturer specifications (Invitrogen, Carlsbad, Calif.). Cells were harvested 48 hours post-transfection and lysed by sonication (setting 3, 10×5 sec pulses) in a buffer containing 20 mM HEPES pH 7.4, 1 mM EDTA and Complete Protease Inhibitor Cocktail Tablets (Roche, Indianapolis, Ind.). Lysate was collected by centrifugation at 75,000×g for 20 minutes at 4° C. and supernatant utilized for evaluation of PDE2 activity. The fluorescence polarization assay for cyclic nucleotide phosphodiesterases was performed using an IMAP® FP kit supplied by Molecular Devices, Sunnyvale, Calif. (product # R8139). […] Assays were performed at room temperature in 384-well microtiter plates with an incubation volume of 20.2 μL. Solutions of test compounds were prepared in DMSO and serially diluted with DMSO to yield 8 μL of each of 10 solutions differing by 3-fold in concentration, at 32 serial dilutions per plate. […] 0% of inhibition is determined by using DMSO (1% final concentrations).
A Labcyte Echo 555 (Labcyte, Sunnyvale, Calif.) is used to dispense 200 nL from each well of the titration plate to the 384 well assay plate. Ten microliters of a solution of enzyme (1/2000 final dilution from aliquots; sufficient to produce 20% substrate conversion) was added to the assay plate. Next 10 uL of a separate solution of the substrate FAM-labeled cAMP (50 nM final concentration product # R7506 from Molecular Devices) and the activator cGMP (1 uM final concentration), prepared in the assay buffer (10 mM Tris HCl, pH 7.2, 10 mM MgCl2, 0.05% NaN3 0.01% Tween-20, and 1 mM DTT) was added to the assay plate and shaken to mix. The reaction is allowed to proceed at room temperature for 60 minutes. A binding solution is then made from the kit components, comprised of 80% Solution A, 20% Solution B and binding reagent at a volume of 1/600 the total binding solution. The enzymatic reaction is stopped by addition of 60 μl, of the binding solution to each well of the assay plates and the plates are sealed and shaken for 30 seconds. The plate was incubated at room temperature for at least one hour prior to determining the fluorescence polarization (FP). The parallel and perpendicular fluorescence of each well of the plate was measured using a Tecan Genios Pro plate reader (Tecan, Switzerland) or Perkin Elmer EnVision™ plate reader (Waltham, Mass.). Fluorescence polarization (mP) was calculated from the parallel (S) and perpendicular (P) fluorescence of each sample well and the analogous values for the median control well, containing only substrate (So and Po), using the following equation: Polarization (mP)=1000*(S/So−P/Po)/(S/So+P/Po).

Row | SMILES | Ki [nM]
1 | CCc1ccc(C(C)n2cc(-c3cc(=O)[nH]c(C)n3)cn2)c(Cl)c1 (single isomer, unassigned) [Example 100, (S)- or (R)-6-(1-(1-(2-chloro-4-ethylphenyl)ethyl)-1H-pyrazol-4-yl)-2-methylpyrimidin-4(3H)-one] | 384
2 | COCc1ccc(C(C)n2cc(-c3cc(=O)[nH]c(C)n3)cn2)c(Cl)c1 (single isomer, unassigned) [Example 103, (R)- or (S)-6-(1-(1-(2-chloro-4-(methoxymethyl)phenyl)ethyl)-1H-pyrazol-4-yl)-2-methylpyrimidin-4(3H)-one] | 106
3 | Cc1nc(-c2cnn(C(C)c3ccc(C(F)(F)F)cc3C(F)(F)F)c2)cc(=O)[nH]1 (single isomer, unassigned) [Example 144, (R)- or (S)-6-(1-(1-(2,4-bis(trifluoromethyl)phenyl)ethyl)-1H-pyrazol-4-yl)-2-methylpyrimidin-4(3H)-one] | 397
4 | Cc1nc(-c2cnn(C(C)c3ccc(C(F)(F)F)cc3C(F)(F)F)c2)cc(=O)[nH]1 (single isomer, unassigned) [Example 145, (S)- or (R)-6-(1-(1-(2,4-bis(trifluoromethyl)phenyl)ethyl)-1H-pyrazol-4-yl)-2-methylpyrimidin-4(3H)-one] | 6810
5 | Cc1ccc(C(C)n2cc(-c3cc(=O)[nH]c(C)n3)cn2)c(Cl)c1 (single isomer, unassigned) [Example 149, (S)- or (R)-6-(1-(1-(2-chloro-4-methylphenyl)ethyl)-1H-pyrazol-4-yl)-2-methylpyrimidin-4(3H)-one] | 954
6 | Cc1ccc(C(C)n2cc(-c3cc(=O)[nH]c(C)n3)cn2)c(F)c1 (single isomer, unassigned) [Example 151, (S)- or (R)-6-(1-(1-(2-fluoro-4-methylphenyl)ethyl)-1H-pyrazol-4-yl)-2-methylpyrimidin-4(3H)-one] | 218

Second part, the compound after the results:

Row | Ki [nM] | SMILES
7 | 212 | CCc1ccc(C(C)n2cc(-c3cc(=O)[nH]c(C)n3)cn2)c(F)c1 (single isomer, unassigned) [Example 102, (S)- or (R)-6-(1-(1-(4-ethyl-2-fluorophenyl)ethyl)-1H-pyrazol-4-yl)-2-methylpyrimidin-4(3H)-one]
8 | > 2970 | COCc1ccc(C(C)n2cc(-c3cc(=O)[nH]c(C)n3)cn2)c(Cl)c1 (single isomer, unassigned) [Example 104, (S)- or (R)-6-(1-(1-(2-chloro-4-(methoxymethyl)phenyl)ethyl)-1H-pyrazol-4-yl)-2-methylpyrimidin-4(3H)-one]
9 | 695 | Cc1ccc(C(C)n2cc(-c3cc(=O)[nH]c(C)n3)cn2)c(F)c1 (single isomer, unassigned) [Example 150, (R)- or (S)-6-(1-(1-(2-fluoro-4-methylphenyl)ethyl)-1H-pyrazol-4-yl)-2-methylpyrimidin-4(3H)-one]

Same assay, conditions: Lab B; read-out: Rhesus PDE2 Ki (nM) Lab B

Row | SMILES | Ki [nM]
10 | Cc1nc(-c2cc(C(C)c3ccc(C(F)(F)F)cc3)nn2C)cc(=O)[nH]1 (single isomer, unassigned) [Example 132, (S)- or (R)-2-methyl-6-(1-methyl-3-(1-(4-(trifluoromethyl)phenyl)ethyl)-1H-pyrazol-5-yl)pyrimidin-4(3H)-one] | > 1000
11 | CNC(c1ccc(C(F)(F)F)cc1)c1cnn(-c2cc(=O)[nH]c(C)n2)c1 (stereo not shown) [Example 31, 2-Methyl-6-(4-((methylamino)(4-(trifluoromethyl)phenyl)methyl)-1H-pyrazol-1-yl)pyrimidin-4(3H)-one] | 488

Results, then the compound that gave them:

Row | Ki [nM] | SMILES
12 | 588 | Cc1nc(-c2cnn(C(C)c3ccc(OC(F)(F)F)cc3)c2)cc(=O)[nH]1 (single isomer, unassigned) [Example 128, (S)- or (R)-2-methyl-6-(1-(1-(4-(trifluoromethoxy)phenyl)ethyl)-1H-pyrazol-4-yl)pyrimidin-4(3H)-one]
13 | > 1000 | Cc1nc(-c2cc(C(C)c3ccc(C(F)(F)F)cc3)nn2C)cc(=O)[nH]1 (single isomer, unassigned) [Example 131, (R)- or (S)-2-methyl-6-(1-methyl-3-(1-(4-(trifluoromethyl)phenyl)ethyl)-1H-pyrazol-5-yl)pyrimidin-4(3H)-one]
